The values that follow come from patent US11786555B2, “RAR selective agonists in combination with immune modulators for cancer immunotherapy” (IO THERAPEUTICS, INC., priority 2017, dated 2023).

In assay [1] the test system is H929 cells and primary CD138+ MM cells. The assay is described as follows: clonogenic or cellular recovery of MM cells after BTZ treatment. The assay is classed as cell-based, human. Particulars: absence of stroma, 1 μM for 5 days, then BTZ 2.5 nM. The protocol: FIG. 4A-B depicts the clonogenic recovery (CFU) of H929 cells (FIG. 4A) or cellular recovery of primary CD138+ MM cells from 3 different patient samples (FIG. 4B). MM cells were treated with bortezomib (BTZ; 2.5 nM) for 48 hours after being incubated for 5 days either in the absence of stroma (Liquid), with or without the pan-RAR inhibitor AGN (1 μM), or in the presence of BM mesenchymal cells (Stroma), with or without the CYP26 inhibitor R115 (1 μM) or the CYP26-resistant retinoid IRX (1 μM). Clonogenic or cellular recovery was normalized to each condition in the absence of BTZ.
(§1) Coculture experiments. 24-well plates were coated with 0.1% gelatin in PBS for 30 min at 37° C. The gelatin solution was removed, and the stromal cells were cultured overnight at a density of 5×10^4 cells/well to obtain a confluent monolayer. At that time, MM cell lines or primary MM cells (1×10^5 in 2 ml) were added to the stroma cultures. The stroma cocultures were incubated at 37° C. in RPMI containing 10% FCS, L-glutamine, and P/S, with or without AGN194310 (1 μM for 5 days), R115866 (1 μM for 5 days), IRX5183 (1 μM for 5 days), or BTZ (2.5 nM for 48 hr).
Clonogenic assays. After treatment, MM cells were collected, washed with PBS, and plated at a density of 5,000 cells/ml in 1 ml of 1.32% methylcellulose supplemented with 30% FBS, 10% BSA, L-glutamine, P/S, and 0.1 mM β-ME. Cells were plated in triplicate in 35-mm culture dishes, incubated at 37° C., and scored for the presence of colonies 14 days later.
A RA-low microenvironment induces BTZ resistance. To determine whether decreased retinoid signaling contributes to BTZ resistance within the BM niche, MM cell lines and MM CD138+ primary cells were incubated with BM stroma for 5 days, followed by BTZ treatment.

Assay [2] relates to H929 cells and CD138+ primary MM cells. The experiment in a line: qRT-PCR of B cell and PC markers in MM cells, liquid or BM stroma co-culture. To be noted: absence of stroma (Liquid), 1 μM for 5 days. The assay is classed as cell-based, human. On the procedure:
FIG. 3A-H depicts the relative concentration of plasma markers BCL6 (FIG. 3A and E), BLIMP-1 (FIG. 3B and F), XBPS-1 (FIG. 3C and G), and CHOP (FIG. 3D and H) in multiple myeloma (MM) cell lines H929 (FIG. 3A-D) or CD138+ MM cells from three different patient samples (FIG. 3E-H) incubated for 5 days either in the absence of stroma (Liquid), with or without AGN (RA receptor antagonist AGN194310, 1 μM), or co-cultured with BM mesenchymal cells (Stroma), with or without R115 (CYP26 inhibitor R115866, 1 μM) or IRX (CYP26-resistant retinoid IRX5183, 1 μM). Expression in untreated liquid conditions was set at 1. Data are representative of 3 independent experiments with similar results and represent the mean ±SEM. *P≤0.05 and **P≤0.01, by repeated-measures 1-way ANOVA for determination of statistical significance between groups; P values were corrected for multiple comparisons using Dunnett's test. Ctrl, control; max, maximum.
as §1
(§2) qRT-PCR. Total RNA was extracted using the RNeasy Mini Kit (QIAGEN) according to the manufacturer's instructions. cDNA was synthesized by reverse transcription using the iScript cDNA Synthesis Kit (Bio-Rad). qRT-PCR was performed with iTaq SYBR Green Supermix (Bio-Rad) using sequence specific primers. Gene expression was normalized to GAPDH, and relative quantification was calculated using ΔΔCt. All experiments were performed in duplicate and run on the Bio-Rad CFX96 machine.
The BM microenvironment (also called “niche”) limits PC differentiation by modulating retinoid signaling. A population of MM progenitors, phenotypically similar to B cells, is intrinsically resistant to BTZ and contributes to MRD and relapse. To investigate whether the BM niche plays a role in determining the phenotype of MM cells, the mRNA expression of B cell and PC markers in MM H929 cell lines (FIG. 3A-D) and MM CD138+ primary cells (FIG. 3E-H) was analyzed following co-culture with mouse BM stroma using human-specific primers. […] In contrast, co-culture of MM cells with BM stroma decreased the mRNA expression of B lymphocyte-induced maturation protein 1 (BLIMP1) and spliced X box-binding protein 1 (XBP1s) (FIG. 3B, C, F, G), which are critical mediators of PC differentiation.
The BM niche regulates hematopoietic stem cell (HSC) differentiation by expressing the retinoid-inactivating enzyme CYP26. CYP26 enzymes were highly expressed in BM mesenchymal cells, while their expression was barely detectable in MM cells. Since retinoid signaling promotes PC differentiation and potentiates Ig secretion, it was determined whether stromal CYP26 is responsible for inducing a B cell phenotype in MM cells. To this end, co-culture conditions were treated with the CYP26 inhibitor R115866 (R115) or the CYP26-resistant RA receptor α-selective (RARα-selective) retinoid IRX5183 (IRX).
(In qPCR the cycle at which signal appears reflects the starting amount.)

The test system of a further assay is MM cells. The assay is described as follows: surface CD138 expression of MM cells by flow cytometry. The assay is classed as cell-based, human. To be noted: absence of stroma, 1 μM. The protocol: as §1
Flow cytometry. Following treatment, MM cells were collected, washed with PBS, and stained for 15 min at room temperature with phycoerythrin-conjugated (PE-conjugated) anti-CD138. Cells were washed to remove unbound antibody and evaluated in a FACSCalibur system (BD Biosciences). Stromal cells were identified by GFP expression, and viable cells were identified using 7-aminoactinomycin D (7-AAD). To calculate cell numbers, live GFP-cells were normalized to calibration beads.
Expression of CD138 is a hallmark of normal PC differentiation as well MM PCs.

Another assay has as its system CD4+ T cells. The experiment in a line: in vivo T cell differentiation in mice (blood and spleen). Further details: species or system mouse. Particulars: in vivo, data not shown. On the procedure:
To expand on the finding above, the in vivo effects of a RARα agonist on T cell differentiation was evaluated in a mouse model. Mice were treated with 100 μg of compound IRX5183 or an equivalent volume of DMSO (vehicle control) every other day for 10 days. Lymphocytes from the blood and spleen were then isolated and FoxP3 expression in CD4^+ T cells was assessed.

Assay [3] deals with naive CD4+ CD25− FoxP3− cells. The experiment in a line: in vitro Th17 cell differentiation. The assay is classed as cell-based, mouse. Particulars: in vitro, data not shown. The protocol: (§3) To determine whether a RARα agonist could affect T cell differentiation, T cells were incubated with a RARα agonist to determine its effect on Foxp3 expression. Naive CD4^+ CD25^− FoxP3^− cells were purified from a Foxp3-GFP mouse using flow cytometry by sorting and isolating based upon a GFP^− phenotype. These cells were activated polyclonally with αCD3 in vitro in the presence of IL-2 and TGF-β. These cells were then cultured in media with various concentrations of compound IRX5183 (a RARα agonist) and the expression of FoxP3-GFP was analyzed by flow cytometry. The RARα agonist compound IRX5183 enhanced differentiation of immunosuppressive Treg cells and inhibited differentiation of inflammatory TH17 cells from naïve T cells in vitro (Table 2).

The subject of assay [4] is naive CD4+ CD25− FoxP3− cells. The experiment in a line: in vitro Treg cell differentiation (FoxP3-GFP, flow cytometry). Particulars: data not shown. The assay is classed as cell-based, mouse. The protocol: as §3
A general note: In flow cytometry, cells or beads pass a laser one at a time.

Assay [5] has as its system FLT3/ITD acute myeloid leukemia (AML) cells. To be noted: cited from earlier work.
A further assay concerns OCI-AML3 cells. The assay is described as follows: CFU experiments, off and on stroma. The assay is classed as cell-based. To be noted: 10^−6 M ATRA, IRX5183, or 10^−7 M AM80. From the text: (§4) Data across three independent experiments.
The subject of the next assay is NB4 cells. The experiment in a line: CFU experiments, off and on stroma. The assay is classed as cell-based. To be noted: 10^−7 M ATRA, IRX5183, or 10^−8 M AM80.
From the text: as §4

A further assay concerns Kasumi-1 cells. The experiment in a line: CFU experiments, off and on stroma. To be noted: 10^−6 M ATRA, IRX5183, or 10^−7 M AM80. The assay is classed as cell-based.
From the text: as §4

In a further assay the test system is BM stromal cells. The experiment in a line: stromal Cyp26a1 upregulation by MM cells in coculture. The assay is classed as cell-based, mouse. To be noted: coculture with MM cells. The protocol:
as §2
To confirm the role of paracrine Hedgehog on this interaction, smoothened (Smo), a membrane receptor that transduces SHH signaling, was knocked out at the genomic level in the mesenchymal compartment. For this, BM mesenchymal cells derived from Smo^fl/fl mice were transduced with a retroviral vector encoding Cre recombinase (Smo-KO stroma). Mouse Smo^fl/fl stromal cells transduced with an empty retroviral vector were used as a control (WT stroma). The transduced BM stromal cells were cocultured with MM cells for 24 hr.

Assay [6] relates to relapse/refractory patients. Particulars: in combination with BTZ; cited from earlier work.

With `CCc1ccc(C2=CC(C)(C)Sc3ccc(C#Cc4ccc(C(=O)O)cc4)cc32)cc1` [AGN194310], in [1], the “effect on BTZ sensitivity” value is listed as “decreasing BTZ sensitivity”. The “mRNA expression of B cell and PC markers (BCL6, BLIMP1, XBP1s, CHOP)” value in assay [2] is given as “mimicked the changes induced by BM stromal cells”. In the assay on MM cells, the “surface CD138 expression” value is reported as “markedly decreased”.

As to `CCOc1c(Br)cc(C(=O)Nc2ccc(C(=O)O)cc2)cc1C(=O)c1ccc(C)cc1` [AGN196996], the Th17 cell numbers entry (with CD4+ T cells; in assay [3]) was “increases Th17 cell numbers” each time. For the same compound, the Treg cell numbers result (in the assay with CD4+ T cells; in assay [4]) was “decreases Treg cell numbers” in each case.

`CC1(C)CCC(C)(C)c2cc(NC(=O)c3ccc(C(=O)O)cc3)ccc21` [AM80, 4-[(5,6,7,8-tetrahydro-5,5,8,8-tetramethyl-2-naphthalenyl)carbamoyl]benzoic acid]: in [5], the “differentiation and sensitivity to FLT3 inhibitors” value is “differentiates FMS-like tyrosine kinase 3/internal tandem duplication (FLT3/ITD) acute myeloid leukemia (AML) cells and increase their sensitivity to FLT3 inhibitors”. Further, the “clonogenic growth (CFU), differentiation and elimination of AML” value with OCI-AML3 cells, with NB4 cells and in the assay on Kasumi-1 cells was “decrease in clonogenic growth compared to control” in each case.

On to `CC1=C2C[C@H]3[C@@H](CC=C4C[C@@H](O)CC[C@@]43C)[C@@H]2CC[C@]12O[C@@H]1C[C@H](C)CN[C@H]1[C@H]2C` [cyclopamine], for which the “stromal Cyp26a1 upregulation by MM cells” value with BM stromal cells is “partially overcame stromal Cyp26a1 upregulation by MM cells”.

On to `c1cc(CN2CCCNCCNCCCNCC2)ccc1CN1CCCNCCNCCCNCC1` [plerixafor], for which, in assay [6], the response rates entry was “improved response rates”.
